The values that follow are results of earlier work, collected in patent US20060084141A1, “Biosynthetic gene cluster for the maytansinoid antitumor agent ansamitocin” (priority 2001, published 2006).

For series [1], the system named is patients with different types of tumors. The settings on record: phase II trials.
Series [2] has as its system various murine leukemia cell lines. The settings on record: in vitro.
The subject of series [3] is human carcinoma and leukemia cell lines. The conditions noted are these: in vitro.
Series [4] relates to human cancer patients.

Molecules are shown by their SMILES.

As to `COc1cc2cc(c1Cl)N(C)C(=O)C[C@H](OC(=O)[C@H](C)N(C)C(C)=O)[C@]1(C)O[C@H]1[C@H](C)[C@@H]1C[C@@](O)(NC(=O)O1)[C@H](OC)/C=C/C=C(\C)C2` [Maytansine], in series [1], the response rates entry is “Insignificant response rates”. Also, the dose inhibiting growth in series [2] and in series [3] was 10^−3 to 10^−7 μg/ml in each case. In addition, the tumor response result in series [4] (phase I (early) trials) was “A few partial responses”. In addition, in series [4] (phase I trials), the dose limiting toxicity entry is “dose limiting gastrointestinal toxicity and neurotoxicity”. The myelosuppression entry in series [4] (phase I trials) is on record as “modest levels of mylosuppression”.
